Test system: monoarthritis rats
Experiment: CFA-induced monoarthritis, Hargreaves and Tail Flick tests
Format: in vivo, rat
Text: The subcutaneous intraplantar injection of complete Freund's adjuvant (CFA) into the local area of an animal can cause severe inflammatory pain around the injected area. This CFA-induced inflammatory pain has been widely used as a kind of pain model in the field of pain research since it was reported. Inflammatory pain was induced by an injection of complete Freund's adjuvant into the right hindpaw of the rats (S. H. Butler, F. Godefroy, J. M. Besson and J. Weilfugazza. 1992. A limited arthritic model for chronic pain studies in the rat. Pain, 48: 73-81). The paw withdrawal latency was used to assess the inflammatory pain according to the method of Hargreaves et al. (Hargreaves K, Dubner R, Brown F, Flores C, and Joris J. 1988. A new and sensitive method for measuring thermal nociception in cutaneous hyperalgesia. Pain 32: 77-88, 1988). The CFA-injected area of the right paw was placed on a constant-intensity radiant heat source and the time of paw-withdrawal latency was measured by observing the animal's paw-withdrawal response after applying initial heat to the left or right paws. Additionally, the Tail Flick test was performed in order to assess the secondary hyperalgesia.

N=C(N)NCCC[C@H](NC(=O)[C@@H](N)Cc1ccc(O)cc1)C(N)=O [KTP-NH2, L-Tyr-L-Arg-NH2]
analgesic effect in chronic inflammatory pain: efficacy
